Reference: PubChem BioAssay AID248 (DTP/NCI, 2004)
Several values for one entry are separate records, joined by “and”; a condition that tells them apart may be missing. Equal values may be shown once. Inconclusive results and toxic doses are left out.

System: L1210 leukemia ip in BDF1 mice, survival T/C
Experiment: NCI In Vivo Anticancer Drug Screen. Data for tumor model L1210 Leukemia (intraperitoneal) in B6D2F1 (BDF1) mice
Conditions: endpoint: mean survival time, higher = longer survival
Method in brief: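 Tumor was transplanted into mice, which were then dosed with test compound or vehicle alone. Survival was recorded for each group, and the treated figure was expressed relative to the control figure.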

[1] = dose: 100.0 mg/kg/injection, schedule: Q01DX009 (ip), vehicle: saline with Tween-80
[2] = dose: 200.0 mg/kg/injection, schedule: Q01DX009 (ip), vehicle: saline with Tween-80
[3] = dose: 200.0 mg/kg/injection, schedule: Q04DX003 (ip), vehicle: saline with Tween-80
[4] = dose: 400.0 mg/kg/injection, schedule: Q01DX009 (ip), vehicle: saline with Tween-80
[5] = dose: 100.0 mg/kg/injection, schedule: Q01DX001 (ip), vehicle: saline
[6] = dose: 200.0 mg/kg/injection, schedule: Q01DX001 (ip), vehicle: saline
[7] = dose: 400.0 mg/kg/injection, schedule: Q01DX001 (ip), vehicle: saline
[8] = dose: 100.0 mg/kg/injection, schedule: Q01DX009 (ip), vehicle: Klucel (hydroxypropylcellulose) (HPC)
[9] = dose: 200.0 mg/kg/injection, schedule: Q01DX009 (ip), vehicle: Klucel (hydroxypropylcellulose) (HPC)
[10] = dose: 400.0 mg/kg/injection, schedule: Q01DX009 (ip), vehicle: Klucel (hydroxypropylcellulose) (HPC)
[11] = dose: 100.0 mg/kg/injection, schedule: Q04DX003 (ip), vehicle: saline
[12] = dose: 200.0 mg/kg/injection, schedule: Q04DX003 (ip), vehicle: saline
[13] = dose: 400.0 mg/kg/injection, schedule: Q04DX003 (ip), vehicle: saline
[14] = dose: 100.0 mg/kg/injection, schedule: Q01DX001 (ip), vehicle: carboxymethylcellulose (CMC)
[15] = dose: 400.0 mg/kg/injection, schedule: Q01DX001 (ip), vehicle: carboxymethylcellulose (CMC)
[16] = dose: 50.0 mg/kg/injection, schedule: Q04DX003 (ip), vehicle: Klucel (hydroxypropylcellulose) (HPC)
[17] = dose: 25.0 mg/kg/injection, schedule: Q01DX009 (ip), vehicle: saline with Tween-80
[18] = dose: 50.0 mg/kg/injection, schedule: Q01DX009 (ip), vehicle: saline with Tween-80
[19] = dose: 75.0 mg/kg/injection, schedule: Q01DX001 (ip), vehicle: saline
[20] = dose: 150.0 mg/kg/injection, schedule: Q01DX001 (ip), vehicle: saline

With `Cc1cccc(C2C(=O)c3ccccc3C2=O)n1` the T/C [1] was 88 % of control, the T/C (dose: 100.0 mg/kg/injection, schedule: Q04DX003 (ip), vehicle: saline with Tween-80) was 95 % of control and the T/C [2] was 89 % of control. For the same molecule, the T/C [3] was 99 % of control, the T/C [4] was 91 % of control and the T/C (dose: 400.0 mg/kg/injection, schedule: Q04DX003 (ip), vehicle: saline with Tween-80) was 88 % of control.

In the case of `CCc1c(C)c2n(c1C)C(=O)C=C2N(CC)CC`, the T/C [5] is reported as 106 % of control, the T/C [6] is reported as 102 % of control and the T/C [7] is reported as 96 % of control.

In the case of `O=C(O)c1cc([N+](=O)[O-])ccc1Nc1ccccc1`, the T/C [3] is reported as 95 % of control.

In the case of `Cc1nn(C)c2ccc([N+](=O)[O-])cc12`, the T/C [8] is reported as 91 % of control, the T/C [9] is reported as 102 % of control and the T/C (dose: 200.0 mg/kg/injection, schedule: Q04DX003 (ip), vehicle: Klucel (hydroxypropylcellulose) (HPC)) is reported as 97 % of control. For the same molecule, the T/C [10] was 96 % of control and the T/C (dose: 400.0 mg/kg/injection, schedule: Q04DX003 (ip), vehicle: Klucel (hydroxypropylcellulose) (HPC)) was 98 % of control.

`CC(=O)c1ccc2c(c1)Cc1ccccc1-2` was tested, and the T/C (dose: 25.0 mg/kg/injection, schedule: Q04DX003 (ip), vehicle: saline) was 105 % of control, the T/C (dose: 50.0 mg/kg/injection, schedule: Q04DX003 (ip), vehicle: saline) was 95 % of control and the T/C [5] was 90 % of control. The T/C [11] was 101 % of control, the T/C [6] was 90 % of control and the T/C [12] was 96 % of control. For the same molecule, the T/C [7] was 90 % of control and the T/C [13] was 91 % of control.

In the case of `C=CS(=O)(=O)CCCC`, the T/C [1] is reported as 97 % of control and the T/C [2] is reported as 101 % of control.

In the case of `Nc1ccc(P(=O)(O)O)cc1`, the T/C (dose: 50.0 mg/kg/injection, schedule: Q01DX001 (ip), vehicle: carboxymethylcellulose (CMC)) is reported as 101 % of control, the T/C [14] is reported as 97 % of control and the T/C (dose: 200.0 mg/kg/injection, schedule: Q01DX001 (ip), vehicle: carboxymethylcellulose (CMC)) is reported as 91 % of control. The T/C [15] was 91 % of control.

`CCCCOC(=O)CN(C)/N=N/c1nc[nH]c1C(=O)OCC` was tested, and the T/C (dose: 25.0 mg/kg/injection, schedule: Q01DX001 (ip), vehicle: Klucel (hydroxypropylcellulose) (HPC)) was 97 % of control, the T/C (dose: 25.0 mg/kg/injection, schedule: Q04DX003 (ip), vehicle: Klucel (hydroxypropylcellulose) (HPC)) was 99 % of control and the T/C (dose: 50.0 mg/kg/injection, schedule: Q01DX001 (ip), vehicle: Klucel (hydroxypropylcellulose) (HPC)) was 97 % of control. For the same molecule, the T/C [16] was 96 % of control, the T/C (dose: 100.0 mg/kg/injection, schedule: Q01DX001 (ip), vehicle: Klucel (hydroxypropylcellulose) (HPC)) was 99 % of control and 104 % of control and the T/C (dose: 100.0 mg/kg/injection, schedule: Q04DX003 (ip), vehicle: Klucel (hydroxypropylcellulose) (HPC)) was 94 % of control.

In the case of `CCOC(=O)NCc1cnccn1`, the T/C [11] is reported as 100 % of control and 102 % of control, the T/C [12] is reported as 95 % of control and 100 % of control and the T/C [13] is reported as 104 % of control.

With `CSc1ccc(NC(=O)Nc2ccc(N=Nc3ccccc3)cc2)cc1` the T/C (dose: 12.5 mg/kg/injection, schedule: Q01DX009 (ip), vehicle: saline with Tween-80) was 95 % of control, the T/C [17] was 92 % of control and the T/C [18] was 95 % of control. The T/C [16] was 87 % of control, the T/C (dose: 75.0 mg/kg/injection, schedule: Q01DX009 (ip), vehicle: saline with Tween-80) was 106 % of control and the T/C (dose: 100.0 mg/kg/injection, schedule: Q01DX001 (ip), vehicle: other) was 89 % of control. For the same molecule, the T/C (dose: 115.0 mg/kg/injection, schedule: Q01DX009 (ip), vehicle: saline with Tween-80) was 92 % of control, the T/C (dose: 170.0 mg/kg/injection, schedule: Q01DX009 (ip), vehicle: saline with Tween-80) was 90 % of control and the T/C (dose: 200.0 mg/kg/injection, schedule: Q01DX001 (ip), vehicle: other) was 89 % of control.

`O=C(Nc1ccc(Cl)c(Cl)c1)OCCCl` was tested, and the T/C [19] was 89 % of control and the T/C [20] was 109 % of control.

For `Cc1cc(C)n(-c2nn3nnnc3c3ccccc23)n1`, the T/C (dose: 62.5 mg/kg/injection, schedule: Q04DX003 (ip), vehicle: saline) was 101 % of control, the T/C (dose: 125.0 mg/kg/injection, schedule: Q04DX003 (ip), vehicle: saline) was 95 % of control and the T/C (dose: 250.0 mg/kg/injection, schedule: Q04DX003 (ip), vehicle: saline) was 93 % of control.

With `CN(Cc1ccccc1)C(=O)c1ccc(Cl)cc1` the T/C [8] was 111 % of control, the T/C (dose: 100.0 mg/kg/injection, schedule: Q04DX002 (ip), vehicle: Klucel (hydroxypropylcellulose) (HPC)) was 101 % of control and the T/C [9] was 105 % of control. The T/C [10] was 100 % of control and the T/C (dose: 400.0 mg/kg/injection, schedule: Q04DX002 (ip), vehicle: Klucel (hydroxypropylcellulose) (HPC)) was 89 % of control.

For `CSc1ccc(NC(=O)Nc2ccc(NC(C)=O)cc2)cc1`, the T/C [1] was 97 % of control, the T/C [2] was 98 % of control and the T/C [4] was 97 % of control.

For `CN(Cc1cnc2nc(N)c([N+](=O)[O-])c(N)c2n1)c1ccc(C(=O)NC(CCC(=O)O)C(=O)O)cc1` (stereo unspecified), the T/C (dose: 100.0 mg/kg/injection, schedule: Q04DX002 (ip), vehicle: sodium bicarbonate) was 89 % of control and the T/C (dose: 200.0 mg/kg/injection, schedule: Q04DX002 (ip), vehicle: sodium bicarbonate) was 99 % of control.

`CCOC(=O)CN(C(=O)OCC)C(OCC)OCC` was tested, and the T/C [1] was 95 % of control, the T/C [2] was 104 % of control and the T/C [4] was 93 % of control.

`COc1ccc(CN2CCCN(Cc3ccc(OC)cc3OC)C2c2cc(Cl)ccc2O)c(OC)c1` was tested, and the T/C (dose: 50.0 mg/kg/injection, schedule: Q01DX001 (ip), vehicle: saline) was 95 % of control, the T/C [5] was 86 % of control and the T/C [6] was 95 % of control. For the same molecule, the T/C [7] was 86 % of control.

With `Cc1ccc(/C(Cc2ccccc2)=N\NC(N)=O)cc1` the T/C [5] was 92 % of control, the T/C [6] was 98 % of control and the T/C [7] was 98 % of control.

In the case of `Cc1cc2oc(=O)c3c(c2c(O)c1CN1CCOCC1)CCCC3`, the T/C [14] is reported as 96 % of control and the T/C [15] is reported as 98 % of control.

`CN1CSC(=S)N(Cc2ccccc2)C1` was tested, and the T/C (dose: 100.0 mg/kg/injection, schedule: Q04DX002 (ip), vehicle: saline with Tween-80) was 94 % of control, the T/C (dose: 200.0 mg/kg/injection, schedule: Q04DX002 (ip), vehicle: saline with Tween-80) was 97 % of control and the T/C (dose: 400.0 mg/kg/injection, schedule: Q04DX002 (ip), vehicle: saline with Tween-80) was 105 % of control.

In the case of `CN(C(=O)CCCCl)c1cc([N+](=O)[O-])ccc1OCc1ccccc1`, the T/C [19] is reported as 103 % of control, the T/C [20] is reported as 104 % of control and the T/C (dose: 300.0 mg/kg/injection, schedule: Q01DX001 (ip), vehicle: saline) is reported as 103 % of control.

In the case of `CC(C)CC(C)NCC(C)O` (stereo unspecified), the T/C (dose: 75.0 mg/kg/injection, schedule: Q01DX001 (ip), vehicle: acid diluted with saline) is reported as 100 % of control and the T/C (dose: 150.0 mg/kg/injection, schedule: Q01DX001 (ip), vehicle: acid diluted with saline) is reported as 100 % of control.

With `CCOC(=O)N(OCc1ccccc1)P(=O)(N1CC1(C)C)N1CC1(C)C` (stereo unspecified) the T/C (dose: 100.0 mg/kg/injection, schedule: Q04DX002 (ip), vehicle: saline) was 158 % of control and the T/C (dose: 200.0 mg/kg/injection, schedule: Q04DX002 (ip), vehicle: saline) was 153 % of control.

With `CC(C)NC(=O)/C=C/C(=O)O` the T/C (dose: 100.0 mg/kg/injection, schedule: Q01DX009 (ip), vehicle: saline) was 92 % of control, the T/C (dose: 200.0 mg/kg/injection, schedule: Q01DX009 (ip), vehicle: saline) was 95 % of control and the T/C (dose: 400.0 mg/kg/injection, schedule: Q01DX009 (ip), vehicle: saline) was 92 % of control.

In the case of `Cc1c(N=NN(C)C)c(=O)n(-c2ccccc2)n1C`, the T/C (dose: 18.0 mg/kg/injection, schedule: Q01DX001 (ip), vehicle: saline with Tween-80) is reported as 100 % of control, the T/C (dose: 18.0 mg/kg/injection, schedule: Q04DX003 (ip), vehicle: saline with Tween-80) is reported as 107 % of control and the T/C [17] is reported as 105 % of control. The T/C (dose: 37.0 mg/kg/injection, schedule: Q01DX001 (ip), vehicle: saline with Tween-80) was 116 % of control, the T/C (dose: 37.0 mg/kg/injection, schedule: Q04DX003 (ip), vehicle: saline with Tween-80) was 108 % of control and the T/C [18] was 114 % of control. For the same molecule, the T/C (dose: 75.0 mg/kg/injection, schedule: Q01DX001 (ip), vehicle: saline with Tween-80) was 119 % of control, the T/C (dose: 75.0 mg/kg/injection, schedule: Q04DX003 (ip), vehicle: saline with Tween-80) was 112 % of control and the T/C (dose: 100.0 mg/kg/injection, schedule: Q01DX001 (ip), vehicle: saline with Tween-80) was 97 % of control.
